Structures are written as SMILES. Entries after “also recorded” stand apart in the source; their conditions may differ.

The subject of assay [1] is alpha-L-iduronidase (IDUA). In words: IDUA enzyme activity in MPS-I patient-derived fibroblast cells (4-Methylumbelliferyl α-L-iduronide substrate). The class given is cell-based, human. As to conditions: compound 48 hours, vs buffer only control, FIG. 1. How it is done:
(§1) A cell culture experiment was performed in MPS-I patient-derived fibroblast cells. Cells were cultured overnight in a 384-well plate, at a concentration of 20,000 cells per well in advanced DMEM media (Life Technologies) supplemented with 15% FBS (Life technologies), 1× Glutamax (Life Technologies) and beta-mercaptoethanol (1:125000 dilution). The next day, cells were treated with the indicated compound with final concentrations including, but not limited to: 100 μM, 30 μM, 10 μM, 3.3 μM, 1.1 μM, 0.37 μM and 0.12 μM depending on experiment. Treated cells were then incubated for 48 hours at 37° C., 5% CO2, 95% humidity. Cells were then washed with HBSS buffer, and 25 μM of the fluorogenic substrate 4-Methylumbelliferyl α-L-iduronide (free acid) (Santa Cruz Biotechnology) were added in the presence of 0.2M CHNaO2, 0.1% BSA, and 0.1% Triton X. After the addition of the 4-Methylumbelliferyl α-L-iduronide substrate, cells were incubated at 37° C. for 3 to 4 hours, placed at room temperature for 30 minutes to stabilize and alpha-L-iduronidase (IDUA) enzyme activity was measured using the EnVision Multilabel Plate Reader (Perkin Elmer, Inc.). Compounds were purchased from Tocris, Cayman Chemicals or Sigma-Aldrich.

The test system of assay [2] is α-L-iduronidase (IDUA) mRNA. In words: IDUA mRNA expression in MPS I patient cells (normalized to GAPDH). The class given is cell-based, human. As to conditions: 48 hours. As for the experimental part:
as §1, with “μ[…]” for “μM, 30 μM, 10 μM, 3.3 μM, 1.1 μM, 0.37 μM”, “Sigma-Aldrich. Tests were subsequently conducted to determine whether the increase in activity could in-part be attributed to increases in gene expression. […] Resveratrol and Piceatannol were added to patient cells for 48 hours, in the same conditions mentioned above.” for “Sigma-Aldrich.”

Assay [3] concerns alpha-L-iduronidase. In words: alpha-L-iduronidase activity in plasma of treated mice. The class given is in vivo. As to conditions: for alpha-L-iduronidase activity in plasma: 25 mg/kg or 50 mg/kg daily, 1 month; for α-iduronidase activity in plasma at 50 mg/kg/day: one month.

`Oc1ccc(/C=C/c2cc(O)cc(O)c2)cc1` [CTI-102, 3,5,4′-trihydroxystilbene]: the IDUA enzyme activity result in assay [1] is listed as “increase in IDUA activity”. Besides, the “IDUA mRNA level” value in assay [2] (FIG. 2, listed as resveratrol) is recorded as “increased the mRNA level; also recorded: increase in IDUA mRNA expression”. For the same compound, in assay [3] (FIG. 3), the “alpha-L-iduronidase activity in plasma” value is reported as “Increases in alpha-L-iduronidase activity” and the “α-iduronidase activity in plasma at 50 mg/kg/day” value was “substantial boosts in enzyme activity”. Moreover, the “alpha-L-iduronidase activity in plasma” value in assay [3] (FIG. 3, listed as resveratrol) is listed as “elevation of α-iduronidase activity”.

With `Oc1cc(O)cc(/C=C/c2ccc(O)c(O)c2)c1` [CTI-101, piceatannol], the “IDUA mRNA level” value in assay [2] (FIG. 2, listed as Piceatannol) is “increase in IDUA mRNA expression”; in assay [2] (FIG. 2, listed as piceatannol) it was “increased the mRNA level”. For the same compound, the “alpha-L-iduronidase activity in plasma” value was “Increases in alpha-L-iduronidase activity” in assay [3] (FIG. 3) and “elevation of α-iduronidase activity” in assay [3] (FIG. 3, listed as piceatannol). Moreover, the “α-iduronidase activity in plasma at 50 mg/kg/day” value in assay [3] (FIG. 3) was “substantial boosts in enzyme activity”.

For the origin of these results see patent US12029706B2, “Methods for treating mucopolysaccharidosis” (UNIVERSITY OF MIAMI, priority 2015, dated 2024).
